Results on 3 compounds are retold here after patent US20030013694A1, “Use and compositions of antiprogestins for treatment of prostate diseases” (priority 2001, published 2003).

Assay [1] concerns androgen-independent prostate cancer cells. Conditions: in vitro and in vivo; cited from earlier work.
Assay [2] concerns LNCaP prostate tumor cells. Briefly: LNCaP human prostate cancer model in testosterone-supplemented male nude mice. It is filed as in vivo. Conditions: compared to control and castration. As to the method: Male nude mice (M&B) were supplemented with testosterone pellets (Innovative Research of America). LNCaP prostate cancer cells (obtainable from ATCC), obtained from cell culture and suspended in matrigel, were implanted s.c. in the inguinal region of the mice. Treatment was started when the tumors were approximately 25 mm^2 in size. Treatment was continued until progression of the tumors, Experimental groups were: 1) control (vehicle), 2) castration, 3) the antiandrogen casodex, 30 mg/kg s.c., 4) the antiprogestin mifepristone (RU-486), 10 mg/kg sec., and 5) 11β-(4-acetylphenyl)-17β-hydroxy-17α-(1,1,2,2,2-pentafluoroethyl)-estra-4,9-dien-3-one (antiprogestin (I)), 10 mg/kg sc., 5 times weekly. The tumor area was determined by caliper measurements. The Kruskal Wallis test was used for statistical analysis of intergroup differences of mean values. The tumor weight was determined at the end of the experiment.

The subject of a further assay is R3327H. Conditions: administered alone; R3327H prostate cancer model; cited from earlier work.

The structures appear in SMILES notation.

As to `CC/C(=C(\c1ccccc1)c1ccc(OCCN(C)C)cc1)c1ccccc1` [tamoxifen], the effect on apoptosis entry in assay [1] is on record as “effective inhibitors of apoptosis”.
Regarding `CC#C[C@]1(O)CC[C@H]2[C@@H]3CCC4=CC(=O)CCC4=C3[C@@H](c3ccc(N(C)C)cc3)C[C@@]21C` [mifepristone], the effect on apoptosis result in assay [1] is recorded as “effective inhibitors of apoptosis”. Moreover, the “tumor growth inhibition (tumor area by caliper)” value in assay [2] (10 mg/kg s.c., 5 times weekly) is listed as “totally ineffective”. Further, in the assay on R3327H, the “inhibition of tumor growth” value was “substantial inhibition of tumor growth”.
For `CC(O)(CS(=O)(=O)c1ccc(F)cc1)C(=O)Nc1ccc(C#N)c(C(F)(F)F)c1` (centres unmarked) [casodex], in assay [2] (30 mg/kg s.c.), the “tumor growth inhibition (tumor area by caliper)” value is given as “totally ineffective”.
